Some test systems named below: BT-549; CAKI-1; EKVX; HCC 2998; LOX IMVI; MDA-MB-435; MDA-N; NCI-H226; NCI/ADR-RES; OVCAR-3; OVCAR-4; SF-295; SF-539; SK-MEL-5; SN12C; SNB-75; SW-620; U-251; UACC-257.
What all share (experiment): DTP human tumour cell line panel, 48 h

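A five-concentration, 48-hour dose response in 96-well plates underlies each endpoint, interpolated linearly between surrounding concentrations. The concentration for 50% growth inhibition is given as GI50.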 Activity calls are given as the source filed them. No stated cut-off is given here; in the data, active = GI50 up to about 1.1 µM and inactive = higher. Bounds are passed on as bounds.

Consider `CC1OC(OC2C(O)C(O)C(O)C(O)C2O)C(N)CC1NC(=N)C(=O)O` (stereo not given), for which the GI50 in the experiment on BT-549, in the experiment on CAKI-1, in the experiment with EKVX, in the experiment with HCC 2998, in the experiment with LOX IMVI and in the experiment on MDA-MB-435 was > 100 µM (inactive) each time. In addition, the GI50 in the experiment with MDA-N, with NCI-H226, in the experiment on NCI/ADR-RES, in the experiment with OVCAR-3, with OVCAR-4 and in the experiment with SF-295 was > 100 µM (inactive) throughout. Also, the GI50 with SF-539, in the experiment with SK-MEL-5, in the experiment with SN12C, in the experiment on SNB-75, with SW-620 and with U-251 was > 100 µM (inactive) each time. For the same compound, the GI50 in the experiment on UACC-257 was > 100 µM (inactive).

In the case of `O=C(/C=C/c1ccc(-c2ccccc2)cc1)NCc1ccc(C(=O)NCc2ccccc2)cc1`, the GI50 in the experiment with BT-549, in the experiment on CAKI-1, in the experiment with EKVX, in the experiment on HCC 2998, in the experiment with LOX IMVI and in the experiment on MDA-MB-435 was > 100 µM (inactive) in each case. Besides, the GI50 in the experiment on MDA-N, in the experiment with NCI-H226, in the experiment on NCI/ADR-RES, in the experiment with OVCAR-3, in the experiment on OVCAR-4 and with SF-295 was > 100 µM (inactive) each time. The GI50 in the experiment with SF-539, with SK-MEL-5, in the experiment on SN12C, in the experiment on SNB-75, in the experiment with SW-620 and in the experiment on U-251 was > 100 µM (inactive) each time. Also, the GI50 in the experiment with UACC-257 was > 100 µM (inactive).

For the compound `O=C1CCc2cc([N+](=O)[O-])ccc2O1`, the GI50 in the experiment with BT-549, with CAKI-1, in the experiment with EKVX, with HCC 2998, in the experiment with LOX IMVI and in the experiment with MDA-MB-435 was > 100 µM (inactive) each time. Further, the GI50 in the experiment with MDA-N, in the experiment with NCI-H226, in the experiment with NCI/ADR-RES, in the experiment on OVCAR-3, with OVCAR-4 and in the experiment with SF-295 was > 100 µM (inactive) each time. Besides, the GI50 with SF-539, with SK-MEL-5, in the experiment on SN12C, in the experiment on SNB-75, in the experiment with SW-620 and in the experiment with U-251 was > 100 µM (inactive) throughout. Also, in the experiment on UACC-257, the GI50 is > 100 µM (inactive).

Turning to `O=Cc1c(-c2ccccc2)nc2ccccc2c1O`, the GI50 in the experiment with BT-549 was > 100 µM (inactive); with CAKI-1, 43.4 µM (inactive); in the experiment on EKVX, 85.1 µM (inactive); in the experiment with HCC 2998 it was 58.5 µM (inactive); in the experiment on LOX IMVI it was 42.2 µM (inactive); in the experiment on MDA-MB-435, 21.3 µM (inactive). In addition, the GI50 with MDA-N is 15.6 µM (inactive); in the experiment with NCI-H226, > 100 µM (inactive); with NCI/ADR-RES it was 52.1 µM (inactive); with OVCAR-3 it was 49.8 µM (inactive); with OVCAR-4 it was > 100 µM (inactive); in the experiment with SF-295, 97.9 µM (inactive). The GI50 in the experiment with SF-539 was 45.6 µM (inactive); in the experiment with SK-MEL-5, 17.9 µM (inactive); in the experiment with SN12C, 73.8 µM (inactive); with SNB-75 it was 34.5 µM (inactive); in the experiment with SW-620, 50.6 µM (inactive); in the experiment on U-251, 74.3 µM (inactive). For the same compound, the GI50 with UACC-257 was 72.8 µM (inactive).

Consider `CN[C@H]1CC[C@]23C[C@]24CC[C@]2(C)[C@@H]([C@H](C)N(C)C)CC[C@@]2(C)[C@@H]4CC[C@H]3C1(C)C`, for which the GI50 with BT-549 was 12.7 µM (inactive); in the experiment on CAKI-1, 21.9 µM (inactive); in the experiment on EKVX it was 18.2 µM (inactive); with HCC 2998 it was 13.4 µM (inactive); in the experiment on LOX IMVI, 5.32 µM (inactive); in the experiment on MDA-MB-435 it was 14.1 µM (inactive). Further, the GI50 in the experiment with MDA-N is 13.9 µM (inactive); in the experiment on NCI-H226 it was 16.5 µM (inactive); in the experiment with NCI/ADR-RES it was 18.5 µM (inactive); in the experiment with OVCAR-3, 14.3 µM (inactive); in the experiment with OVCAR-4, 17.7 µM (inactive); in the experiment with SF-295, 14.6 µM (inactive). Moreover, the GI50 was 11.2 µM (inactive) in the experiment on SF-539; 15.1 µM (inactive) with SK-MEL-5; 14.3 µM (inactive) in the experiment on SN12C; 14.4 µM (inactive) with SNB-75; 15.4 µM (inactive) in the experiment with SW-620; 13.7 µM (inactive) with U-251. The GI50 with UACC-257 is 15.1 µM (inactive).

For `Cc1sc2nc3n(c(=O)c2c1C)N=C(c1ccccc1)CS3`, the GI50 in the experiment on BT-549, in the experiment with CAKI-1, in the experiment on EKVX, in the experiment on HCC 2998, in the experiment on LOX IMVI and with MDA-MB-435 was > 100 µM (inactive) throughout. The GI50 in the experiment with MDA-N was > 100 µM (inactive); in the experiment on NCI-H226, > 100 µM (inactive); in the experiment with NCI/ADR-RES it was > 100 µM (inactive); in the experiment with OVCAR-3, > 100 µM (inactive); in the experiment with OVCAR-4 it was > 100 µM (inactive); with SF-295, 45.4 µM (inactive). The GI50 with SF-539, in the experiment on SK-MEL-5, in the experiment with SN12C, in the experiment on SNB-75, in the experiment on SW-620 and in the experiment with U-251 was > 100 µM (inactive) each time. Moreover, the GI50 in the experiment on UACC-257 is > 100 µM (inactive).

Take `CC(C)=CC[C@]12CCN(C)[C@H]1N(S(=O)(=O)c1ccccc1)c1ccccc12`: the GI50 is > 56.5 µM (inactive) in the experiment with BT-549; > 25.6 µM (inactive) in the experiment with CAKI-1; > 24.2 µM (inactive) with EKVX; > 40.1 µM (inactive) in the experiment on HCC 2998; > 37.1 µM (inactive) in the experiment with LOX IMVI; > 44.7 µM (inactive) with MDA-MB-435. Moreover, the GI50 with MDA-N was 48.2 µM (inactive); in the experiment with NCI-H226, > 38.5 µM (inactive); in the experiment with NCI/ADR-RES, > 82.8 µM (inactive); in the experiment on OVCAR-3 it was > 41 µM (inactive); with OVCAR-4, 43.6 µM (inactive); with SF-295, > 54.7 µM (inactive). The GI50 in the experiment on SF-539 is 58.9 µM (inactive); in the experiment on SK-MEL-5, 11.9 µM (inactive); in the experiment on SN12C, > 62.2 µM (inactive); in the experiment with SNB-75, 17.3 µM (inactive); in the experiment with SW-620, > 60.3 µM (inactive); in the experiment with U-251, 32.7 µM (inactive). The GI50 with UACC-257 is > 39.5 µM (inactive).

For `O=c1c(Br)c(-c2ccccc2)[s+]([O-])c2ccccc12` (stereo not given), the GI50 in the experiment with BT-549 is 17.9 µM (inactive); in the experiment with CAKI-1 it was 9.12 µM (inactive); in the experiment with EKVX, 16.4 µM (inactive); in the experiment on HCC 2998 it was 14.6 µM (inactive); in the experiment with LOX IMVI, 11.8 µM (inactive); in the experiment on MDA-MB-435 it was 4.5 µM (inactive). Moreover, the GI50 in the experiment with MDA-N was 6 µM (inactive); in the experiment with NCI-H226, 15.8 µM (inactive); in the experiment with NCI/ADR-RES it was 16.7 µM (inactive); in the experiment on OVCAR-3 it was 10.4 µM (inactive); with OVCAR-4, 1.59 µM (inactive); in the experiment on SF-295, 17.9 µM (inactive). The GI50 in the experiment with SF-539 is 3.01 µM (inactive); in the experiment with SK-MEL-5 it was 11.5 µM (inactive); with SN12C it was 15.6 µM (inactive); in the experiment on SNB-75 it was 16.2 µM (inactive); in the experiment with SW-620, 16.7 µM (inactive); with U-251, 8.07 µM (inactive). In addition, in the experiment on UACC-257, the GI50 is 12.9 µM (inactive).

As to `C[n+]1[n-]o/c(=N\N=O)c1-c1cc(-c2/c(=N/N=O)o[n-][n+]2C)cc(-c2/c(=N\N=O)o[n-][n+]2C)c1`, the GI50 in the experiment on BT-549, in the experiment on CAKI-1, in the experiment on EKVX, with HCC 2998, in the experiment with LOX IMVI and with MDA-MB-435 was > 100 µM (inactive) in each case. Besides, the GI50 with MDA-N, with NCI-H226, with NCI/ADR-RES, with OVCAR-3, in the experiment on OVCAR-4 and in the experiment on SF-295 was > 100 µM (inactive) in each case. The GI50 is > 100 µM (inactive) in the experiment with SF-539; > 100 µM (inactive) in the experiment on SK-MEL-5; > 100 µM (inactive) in the experiment with SN12C; 68.1 µM (inactive) with SNB-75; > 100 µM (inactive) in the experiment with SW-620; > 100 µM (inactive) in the experiment on U-251. In the experiment with UACC-257, the GI50 is > 100 µM (inactive).

As for `COC(=O)c1ccc2[nH]c3c(c2c1)CC(=O)Nc1ccccc1-3`, the GI50 with BT-549 was 1.86 µM (inactive); in the experiment with CAKI-1, 56 µM (inactive); in the experiment on EKVX it was 26.2 µM (inactive); in the experiment on HCC 2998 it was > 100 µM (inactive); in the experiment on LOX IMVI, > 100 µM (inactive); in the experiment on MDA-MB-435 it was > 100 µM (inactive). For the same compound, the GI50 with MDA-N is > 100 µM (inactive); with NCI-H226, 7.31 µM (inactive); in the experiment with NCI/ADR-RES, > 100 µM (inactive); in the experiment with OVCAR-3 it was > 100 µM (inactive); in the experiment with OVCAR-4, 0.673 µM (active); with SF-295 it was > 100 µM (inactive). The GI50 was 2.94 µM (inactive) with SF-539; > 100 µM (inactive) in the experiment with SK-MEL-5; > 100 µM (inactive) in the experiment with SN12C; 2.3 µM (inactive) in the experiment on SNB-75; > 100 µM (inactive) in the experiment with SW-620; 6.68 µM (inactive) in the experiment with U-251. The GI50 in the experiment on UACC-257 is > 100 µM (inactive).

One may read the GI50 as the concentration at which growth is held to half of that of the control.

The values above are taken from ChEMBL document CHEMBL1201862, “PubChem BioAssay data set” (2004).
